Measured values published in the supplement of paper PMC10733146.

Key:
Experiment in all cases: viability relative to DMSO control (fraction); higher = less drug effect (more viable cells)
Conditions in all cases: 48 h
Vindesine = compound: CC[C@]1(O)C[C@@H]2CN(CCc3c([nH]c4ccccc34)[C@@](C(=O)OC)(c3cc4c(cc3OC)N(C)[C@H]3[C@@](O)(C(N)=O)[C@H](O)[C@]5(CC)C=CCN6CC[C@]43[C@@H]65)C2)C1 [Vindesine]
Outline: (§1)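 In 384-well plates with compounds pre-plated at five concentrations (one well per concentration), primary mononuclear tumour cells were plated at 4 × 10^4 cells per well. The cells came from blood or bone marrow by Ficoll isolation or from processed lymph node, and were used fresh or cryopreserved. Culture ran for 48 h at 37 °C and 5% CO2 in RPMI-1640 containing penicillin/streptomycin, L-glutamine and human serum. Viability was read as CellTiter-Glo luminescence, normalised to the median of 16 inner DMSO wells.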

Roscovitine = compound: CC[C@H](CO)Nc1nc(NCc2ccccc2)c2ncn(C(C)C)c2n1 [Roscovitine]
Outline: as §1

Everolimus = compound: CO[C@H]1C[C@@H]2CC[C@@H](C)[C@@](O)(O2)C(=O)C(=O)N2CCCC[C@H]2C(=O)O[C@H]([C@H](C)C[C@@H]2CC[C@@H](OCCO)[C@H](OC)C2)CC(=O)[C@H](C)/C=C(\C)[C@@H](O)[C@@H](OC)C(=O)[C@H](C)C[C@H](C)/C=C/C=C/C=C/1C [Everolimus]
Outline: as §1

[1] = compound: O=C(Nc1ccc2[nH]nc(-c3ccncc3)c2c1)[C@@H]1CCN(CC(=O)N2CCN(c3ccc(-c4ncccn4)cc3)CC2)C1
Outline: as §1

Etoposide = compound: COc1cc([C@@H]2c3cc4c(cc3[C@@H](O[C@@H]3O[C@@H]5CO[C@@H](C)O[C@H]5[C@H](O)[C@H]3O)[C@H]3COC(=O)[C@H]23)OCO4)cc(OC)c1O [Etoposide]
Outline: as §1

Midostaurin hydrate = compound: CO[C@@H]1[C@H](N(C)C(=O)c2ccccc2)C[C@H]2O[C@]1(C)n1c3ccccc3c3c4c(c5c6ccccc6n2c5c31)C(=O)NC4 [Midostaurin hydrate]
Outline: as §1

Duvelisib = compound: C[C@H](Nc1ncnc2nc[nH]c12)c1cc2cccc(Cl)c2c(=O)n1-c1ccccc1 [Duvelisib]
Outline: as §1

Idasanutlin (RS7388) = compound: COc1cc(C(=O)O)ccc1NC(=O)[C@@H]1N[C@@H](CC(C)(C)C)[C@](C#N)(c2ccc(Cl)cc2F)[C@H]1c1cccc(Cl)c1F [Idasanutlin (RS7388)]
Outline: as §1

Chlorambucil = compound: O=C(O)CCCc1ccc(N(CCCl)CCCl)cc1 [Chlorambucil]
Outline: as §1

Entospletinib = compound: c1cn2cc(-c3ccc4cn[nH]c4c3)nc(Nc3ccc(N4CCOCC4)cc3)c2n1 [Entospletinib]
Outline: as §1

Bendamustine = compound: Cn1c(CCCC(=O)O)nc2cc(N(CCCl)CCCl)ccc21 [Bendamustine]
Outline: as §1

Tofacitinib = compound: C[C@@H]1CCN(C(=O)CC#N)C[C@@H]1N(C)c1ncnc2[nH]ccc12 [Tofacitinib]
Outline: as §1

SGC 0946 = compound: CC(C)N(CCCNC(=O)Nc1ccc(C(C)(C)C)cc1)C[C@H]1O[C@@H](n2cc(Br)c3c(N)ncnc32)[C@H](O)[C@@H]1O [SGC 0946]
Outline: as §1

Pomalidomide = compound: Nc1cccc2c1C(=O)N(C1CCC(=O)NC1=O)C2=O [Pomalidomide]
Outline: as §1

primary T-PLL patient cells (S008)
viability (Vindesine; 0.016 µM): 0.631 | viability (Vindesine; 0.08 µM): 0.332 | viability (Vindesine; 0.4 µM): 0.276 | viability (Vindesine; 2 µM): 0.22 | viability (Vindesine; 10 µM): 0.118 | viability (Roscovitine; 0.032 µM): 0.978 | viability (Roscovitine; 0.16 µM): 1.06 | viability (Roscovitine; 0.8 µM): 0.972 | viability (Roscovitine; 4 µM): 1.05 | viability (Roscovitine; 20 µM): 0.949 | viability (Everolimus; 0.0032 µM): 1.03 | viability (Everolimus; 0.016 µM): 0.954 | viability (Everolimus; 0.08 µM): 1.01 | viability (Everolimus; 0.4 µM): 1 | viability (Everolimus; 2 µM): 1.04 | viability ([1]; 0.008 µM): 1.03 | viability ([1]; 0.04 µM): 1.03 | viability ([1]; 0.2 µM): 1.04 | viability ([1]; 1 µM): 1.06 | viability ([1]; 5 µM): 0.938 | viability (Etoposide; 0.032 µM): 1.01 | viability (Etoposide; 0.16 µM): 1.09 | viability (Etoposide; 0.8 µM): 1.03 | viability (Etoposide; 4 µM): 1.03 | viability (Etoposide; 20 µM): 0.945 | viability (Midostaurin hydrate; 0.024 µM): 1.01 | viability (Midostaurin hydrate; 0.12 µM): 0.968 | viability (Midostaurin hydrate; 0.6 µM): 1.01 | viability (Midostaurin hydrate; 3 µM): 1.04 | viability (Midostaurin hydrate; 15 µM): 0.958 | viability (Duvelisib; 0.0016 µM): 0.994 | viability (Duvelisib; 0.008 µM): 0.976 | viability (Duvelisib; 0.04 µM): 1.02 | viability (Duvelisib; 0.2 µM): 0.985 | viability (Duvelisib; 1 µM): 1.02 | viability (Idasanutlin (RS7388); 0.032 µM): 0.876 | viability (Idasanutlin (RS7388); 0.16 µM): 0.888 | viability (Idasanutlin (RS7388); 0.8 µM): 0.656 | viability (Idasanutlin (RS7388); 4 µM): 0.325 | viability (Idasanutlin (RS7388); 20 µM): 0.125 | viability (Chlorambucil; 0.032 µM): 0.977 | viability (Chlorambucil; 0.16 µM): 0.955 | viability (Chlorambucil; 0.8 µM): 1.01 | viability (Chlorambucil; 4 µM): 0.984 | viability (Chlorambucil; 20 µM): 0.661 | viability (Entospletinib; 0.024 µM): 1.01 | viability (Entospletinib; 0.12 µM): 1.06 | viability (Entospletinib; 0.6 µM): 0.955 | viability (Entospletinib; 3 µM): 0.995 | viability (Entospletinib; 15 µM): 1.04 | viability (Bendamustine; 0.032 µM): 1.05 | viability (Bendamustine; 0.16 µM): 1.09 | viability (Bendamustine; 0.8 µM): 0.992 | viability (Bendamustine; 4 µM): 0.983 | viability (Bendamustine; 20 µM): 0.977 | viability (Tofacitinib; 0.024 µM): 0.919 | viability (Tofacitinib; 0.12 µM): 0.906 | viability (Tofacitinib; 0.6 µM): 0.922 | viability (Tofacitinib; 3 µM): 0.913 | viability (Tofacitinib; 15 µM): 0.927 | viability (SGC 0946; 0.024 µM): 1.02 | viability (SGC 0946; 0.12 µM): 1.14 | viability (SGC 0946; 0.6 µM): 0.98 | viability (SGC 0946; 3 µM): 1.04 | viability (SGC 0946; 15 µM): 0.868 | viability (Pomalidomide; 0.0032 µM): 0.949 | viability (Pomalidomide; 0.016 µM): 1.07 | viability (Pomalidomide; 0.08 µM): 1.03 | viability (Pomalidomide; 0.4 µM): 0.91 | viability (Pomalidomide; 2 µM): 0.944

primary AML patient cells (S081)
viability (Vindesine; 0.016 µM): 0.879 | viability (Vindesine; 0.08 µM): 0.841 | viability (Vindesine; 0.4 µM): 0.844 | viability (Vindesine; 2 µM): 0.788 | viability (Vindesine; 10 µM): 0.836 | viability (Roscovitine; 0.032 µM): 0.903 | viability (Roscovitine; 0.16 µM): 0.868 | viability (Roscovitine; 0.8 µM): 0.949 | viability (Roscovitine; 4 µM): 0.857 | viability (Roscovitine; 20 µM): 0.625 | viability (Everolimus; 0.0032 µM): 0.962 | viability (Everolimus; 0.016 µM): 0.976 | viability (Everolimus; 0.08 µM): 0.957 | viability (Everolimus; 0.4 µM): 1 | viability (Everolimus; 2 µM): 1 | viability ([1]; 0.008 µM): 1.04 | viability ([1]; 0.04 µM): 1.02 | viability ([1]; 0.2 µM): 0.892 | viability ([1]; 1 µM): 0.66 | viability ([1]; 5 µM): 0.392 | viability (Etoposide; 0.032 µM): 1.04 | viability (Etoposide; 0.16 µM): 0.999 | viability (Etoposide; 0.8 µM): 0.963 | viability (Etoposide; 4 µM): 1.08 | viability (Etoposide; 20 µM): 1.06 | viability (Midostaurin hydrate; 0.024 µM): 1.04 | viability (Midostaurin hydrate; 0.12 µM): 1.01 | viability (Midostaurin hydrate; 0.6 µM): 1.02 | viability (Midostaurin hydrate; 3 µM): 1.06 | viability (Midostaurin hydrate; 15 µM): 0.851 | viability (Duvelisib; 0.0016 µM): 1.04 | viability (Duvelisib; 0.008 µM): 1.03 | viability (Duvelisib; 0.04 µM): 0.996 | viability (Duvelisib; 0.2 µM): 0.982 | viability (Duvelisib; 1 µM): 0.957 | viability (Idasanutlin (RS7388); 0.032 µM): 0.884 | viability (Idasanutlin (RS7388); 0.16 µM): 1.08 | viability (Idasanutlin (RS7388); 0.8 µM): 1.14 | viability (Idasanutlin (RS7388); 4 µM): 1 | viability (Idasanutlin (RS7388); 20 µM): 1.06 | viability (Chlorambucil; 0.032 µM): 1.01 | viability (Chlorambucil; 0.16 µM): 1.03 | viability (Chlorambucil; 0.8 µM): 1.03 | viability (Chlorambucil; 4 µM): 1.07 | viability (Chlorambucil; 20 µM): 1.07 | viability (Entospletinib; 0.024 µM): 0.995 | viability (Entospletinib; 0.12 µM): 1.04 | viability (Entospletinib; 0.6 µM): 0.984 | viability (Entospletinib; 3 µM): 0.998 | viability (Entospletinib; 15 µM): 1.04 | viability (Bendamustine; 0.032 µM): 0.979 | viability (Bendamustine; 0.16 µM): 1.05 | viability (Bendamustine; 0.8 µM): 1.04 | viability (Bendamustine; 4 µM): 1.12 | viability (Bendamustine; 20 µM): 1.09 | viability (Tofacitinib; 0.024 µM): 0.915 | viability (Tofacitinib; 0.12 µM): 0.92 | viability (Tofacitinib; 0.6 µM): 0.871 | viability (Tofacitinib; 3 µM): 0.824 | viability (Tofacitinib; 15 µM): 0.834 | viability (SGC 0946; 0.024 µM): 0.978 | viability (SGC 0946; 0.12 µM): 0.952 | viability (SGC 0946; 0.6 µM): 0.898 | viability (SGC 0946; 3 µM): 0.843 | viability (SGC 0946; 15 µM): 0.704 | viability (Pomalidomide; 0.0032 µM): 0.938 | viability (Pomalidomide; 0.016 µM): 1.07 | viability (Pomalidomide; 0.08 µM): 1.05 | viability (Pomalidomide; 0.4 µM): 1.05 | viability (Pomalidomide; 2 µM): 1.11
